Experimental findings from patent publication US4018801A, “Substituted oxirane compounds” (The Dow Chemical Company, priority 1975, dated 1977) are described below.

Type in all cases: in vivo
For test [1], the system named is Water-Grass. Put plainly: Comparative pre-emergence herbicide test. From the text:
(§1) Four parts by weight of the compound, 0.08 part of sorbitan trioleate (Span 85), and 0.02 part of a sorbitan monooleate polyoxyethylene derivative (Tween 80) are dipersed in 40 milliliters of acetone to produce a concentrate composition in the form of a water-dispersible liquid containing the predetermined oxirane compound as the sole active agent.
(§2) A portion of each of these concentrate compositions were separately dispersed in portions of water to provide aqueous compositions, containing 0.44 pound of the oxirane compound per 100 gallons of ultimate aqueous mixture.
(§3) The aqueous compositions were then employed for the treatment of seed beds of good agricultural soil which had been prepared and seeded with the seeds of various grass species and broadleaf plants. The grass species included white winter wheat, cultured rice, pigweeds, crabgrass, cheat grass, wild oats, Johnson grass, barnyard grass and yellow foxtail; and the broadleaf plants included corn. In the treating operations, a predetermined quantity of each of the compositions was applied to separate seedbeds as a soil drench at a rate of about 0.43 acre inch of aqueous composition per acre. The quantities were controlled to supply a substantial uniform dosage in a seedbed equivalent to 1.0, 2.0 and 5.0 pounds of the oxirane compound per acre. These dosages correspond, respectively, to a concentration, within the soil depth penetrated of about 1.6, 3.2 and 8.0 parts by weight of the oxirane compound per million parts by weight of soil. Other seedbeds were similarly seeded with the named plant species but were left untreated to serve as checks.
(§4) After about 2 weeks the seedbeds were examined to ascertain what control of the growth of seeds had been obtained.
(§5) Separate aqueous compositions containing the 2-(m-chlorophenyl)-2-(2,2,2-trichloroethyl)oxirane (Cmpd. A) and 2-(m-bromophenyl)-2-(2,2,2-trichloroethyl)oxirane (Cmpd. C) compounds of the present invention were prepared as in Example 32 for comparative per-emergence herbicide tests against noxious grass species with the known 2 -(p-chlorophenyl)-2-(2,2,2-trichloroethyl)oxirane (Cmpd. B) compound and 2-(p-bromophenyl)-2-(2,2,2-trichloroethyl)oxirane (Cmpd. D). The pre-emergence tests were conducted in Example 32 and the results of such tests are set forth below in Table III.

The subject of test [2] is Crabgrass. In words: Pre-emergent control of seed germination, soil drench. The note with it: for % Control: pre-emergence, Crab Grass; for pre-emergence control: crabgrass.
From the text: as §1, §2, §3, §4
(§6) were prepared as in Example 32 and similarly employed for the pre-emergencetreatment of various plant species.
as §5
(§7) An aqueous composition containing 2-(α,α,α -trifluoro-m-tolyl)-2-(2,2,2-trichloroethyl)oxirane was prepared as described in Example 32. The composition was then employed according to the procedures of Example 32 except that lower concentrations of the oxirane compound were employed in the composition.
(§8) The percent control of the various plant species at the employed dosage rate of the 2-(α,α,α-trifluoro-m-tolyl)- 2-(2,2,2-trichloroethyl) supplied by the composition is set forth in the following Table IV.

The subject of test [3] is Johnson Grass. Described as above. The note with it: for % Control: pre-emergence, Johnson Grass; for pre-emergence control: Johnson grass.
From the text: as §1, §2, §3, §4, §6, §5, §7, §8

Test [4] relates to Pigweeds. The description is as above. The note with it: pigweeds, 2.0 pounds per acre.
From the text: as §1, §2, §3, §4, §6, §7, §8

Test [5] concerns Wild Oats. The description is as above. The note with it: wild oats.
From the text: as §1, §2, §3, §4, §6, §7, §8

For test [6], the system named is Barnyard Grass. The description is as above. The note with it: barnyard grass.
From the text: as §1, §2, §3, §4, §6, §7, §8

For test [7], the system named is Yellow Foxtail. The description is as above. The conditions noted are these: yellow foxtail.
From the text: as §1, §2, §3, §4, §6, §7, §8

The mark [8] stands for this setting: 0.25 to 0.5 pounds per acre, respectively.

In the case of `Clc1ccc(C2(CC(Cl)(Cl)Cl)CO2)cc1` (stereo not shown) [Cmpd. B, 2-(p-chlorophenyl)-2-(2,2,2-trichloroethyl)oxirane, reference compound], the “% Control” value in test [1] (1/8 Lb/Acre) is on record as 90%; in test [1] (1/16 Lb/Acre), 60%; in test [2] (1/8 Lb/Acre) it was 20%; in test [2] (1/16 Lb/Acre), 0%; in test [3] (1/8 Lb/Acre), 30%; in test [3] (1/16 Lb/Acre) it was 0%.
As to `ClC(Cl)(Cl)CC1(c2ccc(Br)cc2)CO1` (stereo not shown) [Cmpd. D, 2-(p-bromophenyl)-2-(2,2,2-trichloroethyl)oxirane, reference compound], the “% Control” value stood at 60% in test [1] (1/8 Lb/Acre); 30% in test [1] (1/16 Lb/Acre); 0% in test [2] (1/8 Lb/Acre); 0% in test [2] (1/16 Lb/Acre); 25% in test [3] (1/8 Lb/Acre); 0% in test [3] (1/16 Lb/Acre).
Consider `Clc1ccc(C2(CC(Cl)(Cl)Cl)CO2)cc1Cl` (stereo not shown) [Example 5, 2-(3,4-dichlorophenyl)-2-(2,2,2-trichloroethyl)oxirane], for which the pre-emergence control entry in test [2] (2.0 pounds per acre), in test [3] (2.0 pounds per acre), in test [4] and in test [5] (2.0 pounds per acre) was “substantially complete control” in each case.
Regarding `Clc1cccc(C2(CC(Cl)(Cl)Cl)CO2)c1` (stereo not shown) [Example 7, 2-(m-chlorophenyl)-2-(2,2,2-trichloroethyl)oxirane], the “% Control” value in test [1] (1/8 Lb/Acre) worked out at 90%; in test [1] (1/16 Lb/Acre), 85%; in test [2] (1/8 Lb/Acre), 100%; in test [2] (1/16 Lb/Acre) it was 100%; in test [3] (1/8 Lb/Acre), 100%; in test [3] (1/16 Lb/Acre) it was 100%. Also, the pre-emergence control entry in test [2] (setting [8]), in test [3] (setting [8]), in test [6] (setting [8]), in test [5] (setting [8]) and in test [7] (setting [8]) was “Substantially complete pre-emergence control” in each case.
Take `Cc1cccc(C2(CC(Cl)(Cl)Cl)CO2)c1` (stereo not shown) [Example 9, 2-(m-tolyl)-2-(2,2,2-trichloroethyl)oxirane]: the pre-emergence control entry in test [2] (2.0 pounds per acre), in test [3] (2.0 pounds per acre), in test [4], in test [6] (2.0 pounds per acre), in test [5] (2.0 pounds per acre) and in test [7] (2.0 pounds per acre) was “substantially complete control” each time.
Regarding `COc1cccc(C2(CC(Cl)(Cl)Cl)CO2)c1` (stereo not shown) [Example 12, 2-(m-methoxyphenyl)-2-(2,2,2-trichloroethyl)oxirane], the pre-emergence control entry in test [2] (2.0 pounds per acre), in test [3] (2.0 pounds per acre), in test [4] and in test [6] (2.0 pounds per acre) was “substantially complete pre-emergence control” throughout.
For the compound `CCOc1cccc(C2(CC(Cl)(Cl)Cl)CO2)c1` (stereo not shown) [Example 14, 2-(m-ethoxyphenyl)-2-(2,2,2-trichloroethyl)oxirane], the pre-emergence control result in test [2] (2.0 pounds per acre), in test [3] (2.0 pounds per acre), in test [6] (2.0 pounds per acre) and in test [5] (2.0 pounds per acre) was “substantially complete control” throughout.
Regarding `Fc1cccc(C2(CC(Cl)(Cl)Cl)CO2)c1` (stereo not shown) [Example 19, 2-(m-fluorophenyl)-2-(2,2,2-trichloroethyl)oxirane], the pre-emergence control entry in test [2] (setting [8]), in test [3] (setting [8]), in test [6] (setting [8]), in test [5] (setting [8]) and in test [7] (setting [8]) was “Substantially complete pre-emergence control” each time.
